Assay: Human influenza challenge: safety assessment, adverse events
Assay type: in vivo, healthy volunteers (humans)
Source text: A list of adverse events occurring in ≥10% of subjects in any treatment group is presented (Table 29). Influenza-like illness was the most frequently reported adverse event, and was reported by an approximately equal proportion of subjects in the placebo and Compound (1) groups.

Which results are given for `O=C(O)[C@H]1[C@H]2CC[C@H](CC2)[C@@H]1Nc1nc(-c2c[nH]c3ncc(F)cc23)ncc1F` [Compound (1)]?
Adverse event: Headache (100 mg, N = 16): 1 (6.3) n(%); Adverse event: Influenza-like illness (100 mg, N = 16): 8 (50.0) n(%); Adverse event: Malaise (100 mg, N = 16): 2 (12.5) n(%); Adverse event: Nasal congestion (100 mg, N = 16): 0 n(%); Adverse event: Nausea (100 mg, N = 16): 0 n(%); Adverse event: Oropharylngeal pain (100 mg, N = 16): 2 (12.5) n(%); Adverse event: Rhinorrhea (100 mg, N = 16): 0 n(%); Adverse event: Spirometry abnormal (100 mg, N = 16): 2 (12.5) n(%); Adverse event: Tension Headache (100 mg, N = 16): 0 n(%); Adverse event: Alanine aminotransferase increased (400 mg, N = 19): 1 (5.3) n(%); Adverse event: Aspartate aminotransferase increased (400 mg, N = 19): 1 (5.3) n(%); Adverse event: Blood phosphorus decreased (400 mg, N = 19): 0 n(%); Adverse event: Dermatitis contact (400 mg, N = 19): 0 n(%); Adverse event: Headache (400 mg, N = 19): 4 (21.1) n(%); Adverse event: Influenza-like illness (400 mg, N = 19): 10 (52.6) n(%); Adverse event: Malaise (400 mg, N = 19): 0 n(%); Adverse event: Nasal congestion (400 mg, N = 19): 0 n(%); Adverse event: Nausea (400 mg, N = 19): 2 (10.5) n(%); Adverse event: Oropharylngeal pain (400 mg, N = 19): 0 n(%); Adverse event: Rhinorrhea (400 mg, N = 19): 2 (10.5) n(%); Adverse event: Spirometry abnormal (400 mg, N = 19): 4 (21.1) n(%); Adverse event: Tension Headache (400 mg, N = 19): 2 (10.5) n(%); Adverse event: Alanine aminotransferase increased (900/600 mg, N = 19): 0 n(%); Adverse event: Aspartate aminotransferase increased (900/600 mg, N = 19): 0 n(%); Adverse event: Blood phosphorus decreased (900/600 mg, N = 19): 6 (31.6) n(%); Adverse event: Dermatitis contact (900/600 mg, N = 19): 0 n(%); Adverse event: Headache (900/600 mg, N = 19): 0 n(%); Adverse event: Influenza-like illness (900/600 mg, N = 19): 9 (47.4) n(%); Adverse event: Malaise (900/600 mg, N = 19): 0 n(%); Adverse event: Nasal congestion (900/600 mg, N = 19): 0 n(%); Adverse event: Nausea (900/600 mg, N = 19): 1 (5.3) n(%); Adverse event: Oropharylngeal pain (900/600 mg, N = 19): 1 (5.3) n(%); Adverse event: Rhinorrhea (900/600 mg, N = 19): 0 n(%); Adverse event: Spirometry abnormal (900/600 mg, N = 19): 0 n(%); Adverse event: Tension Headache (900/600 mg, N = 19): 1 (5.3) n(%); Adverse event: Alanine aminotransferase increased (1200/600 mg, N = 18): 6 (33.3) n(%); Adverse event: Aspartate aminotransferase increased (1200/600 mg, N = 18): 2 (11.1) n(%); Adverse event: Blood phosphorus decreased (1200/600 mg, N = 18): 4 (22.2) n(%); Adverse event: Dermatitis contact (1200/600 mg, N = 18): 0 n(%); Adverse event: Headache (1200/600 mg, N = 18): 2 (11.1) n(%); Adverse event: Influenza-like illness (1200/600 mg, N = 18): 7 (38.9) n(%); Adverse event: Malaise (1200/600 mg, N = 18): 0 n(%); Adverse event: Nasal congestion (1200/600 mg, N = 18): 1 (5.6) n(%); Adverse event: Nausea (1200/600 mg, N = 18): 0 n(%); Adverse event: Oropharylngeal pain (1200/600 mg, N = 18): 0 n(%); Adverse event: Rhinorrhea (1200/600 mg, N = 18): 1 (5.6) n(%); Adverse event: Spirometry abnormal (1200/600 mg, N = 18): 4 (22.2) n(%); Adverse event: Tension Headache (1200/600 mg, N = 18): 0 n(%); adverse event incidence: decreased blood phosphorus level (Compound (1) groups): 18.1%; adverse event incidence: nasal congestion (Compound (1) groups): 1.4%; adverse event incidence: rhinorrhea (Compound (1) groups): 4.2%; Adverse event: Alanine aminotransferase increased (Pooled Compound (1), N = 72): 10 (13.9) n(%); Adverse event: Aspartate aminotransferase increased (Pooled Compound (1), N = 72): 4 (5.6) n(%); Adverse event: Blood phosphorus decreased (Pooled Compound (1), N = 72): 13 (18.1) n(%); Adverse event: Dermatitis contact (Pooled Compound (1), N = 72): 3 (4.2) n(%); Adverse event: Headache (Pooled Compound (1), N = 72): 7 (9.7) n(%); Adverse event: Influenza-like illness (Pooled Compound (1), N = 72): 34 (47.2) n(%); Adverse event: Malaise (Pooled Compound (1), N = 72): 2 (2.8) n(%); Adverse event: Nasal congestion (Pooled Compound (1), N = 72): 1 (1.4) n(%); Adverse event: Nausea (Pooled Compound (1), N = 72): 3 (4.2) n(%); Adverse event: Oropharylngeal pain (Pooled Compound (1), N = 72): 3 (4.2) n(%); Adverse event: Rhinorrhea (Pooled Compound (1), N = 72): 3 (4.2) n(%); Adverse event: Spirometry abnormal (Pooled Compound (1), N = 72): 10 (13.9) n(%); Adverse event: Tension Headache (Pooled Compound (1), N = 72): 3 (4.2) n(%); discontinuations due to Compound (1)-related adverse events; serious adverse events (healthy volunteers, five daily doses): no discontinuations; alanine aminotransferase (ALT) (observed in both placebo and Compound (1) recipients): elevations in alanine aminotransferase (ALT) were observed
